Like-named read-outs stand apart in the source and are kept apart here.
Columns and labels:
Cannabinoid CB2 Receptor = biological target: T1, Cannabinoid CB2 Receptor (Homo sapiens, UniProt P34972); assay: Binding assay, cannabinoid CB2 receptor ([3H]-CP-55,940 displacement, SK-N-MC cell membranes); conditions: test concentration of 0.2 μM; human CB2 in SK-N-MC membranes; read-out: Cannabinoid CB2 Receptor Binding, percent inhibition
T1 construct: expressed in transfected cells; semi-purified membrane pellet
T1 sequence (P34972 whole entry): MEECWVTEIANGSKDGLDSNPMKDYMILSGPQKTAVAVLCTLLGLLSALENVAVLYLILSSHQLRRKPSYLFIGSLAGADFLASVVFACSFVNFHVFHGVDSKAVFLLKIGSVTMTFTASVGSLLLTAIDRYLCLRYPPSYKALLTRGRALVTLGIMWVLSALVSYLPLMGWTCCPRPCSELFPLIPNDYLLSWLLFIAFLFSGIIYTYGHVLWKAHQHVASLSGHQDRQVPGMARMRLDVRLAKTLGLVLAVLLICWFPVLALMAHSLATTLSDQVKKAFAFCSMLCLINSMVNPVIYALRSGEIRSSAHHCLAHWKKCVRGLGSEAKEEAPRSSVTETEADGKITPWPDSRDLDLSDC
Outline: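 Membranes from SK-N-MC cells stably expressing human CB2 were incubated 90 min at 30 °C with 0.2 nM [3H]-CP-55,940 in Tris buffer, pH 7.5, with BSA; 10 uM WIN 55,212 defined non-specific binding. Filter-bound counts gave IC50 by linear regression, or % inhibition at 0.2 μM.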

Cannabinoid CB1 Receptor = biological target: T2, Cannabinoid CB1 Receptor (Homo sapiens, UniProt P21554); assay: Binding assay, cannabinoid CB1 receptor ([3H]-CP-55,940 displacement, SK-N-MC cell membranes); conditions: for inhibition at 0.2 µM: read-out: Cannabinoid CB1 Receptor Binding, percent inhibition
T2 construct: expressed in transfected cells; semi-purified membrane pellet
T2 sequence (P21554 whole entry): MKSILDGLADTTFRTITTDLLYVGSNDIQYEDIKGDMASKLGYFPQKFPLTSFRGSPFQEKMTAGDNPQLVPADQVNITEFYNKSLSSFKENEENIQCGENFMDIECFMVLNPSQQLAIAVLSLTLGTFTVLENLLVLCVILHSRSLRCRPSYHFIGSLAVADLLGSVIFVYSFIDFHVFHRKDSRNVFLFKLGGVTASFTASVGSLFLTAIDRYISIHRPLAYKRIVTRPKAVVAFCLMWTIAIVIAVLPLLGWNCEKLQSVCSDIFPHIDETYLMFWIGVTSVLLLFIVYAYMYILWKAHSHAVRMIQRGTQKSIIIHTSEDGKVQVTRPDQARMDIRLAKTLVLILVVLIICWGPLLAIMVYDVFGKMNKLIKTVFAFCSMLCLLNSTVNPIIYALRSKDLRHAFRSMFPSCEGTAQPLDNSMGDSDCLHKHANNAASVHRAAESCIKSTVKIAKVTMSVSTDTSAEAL

[1] = test concentration of 0.2 μM, human CB1 in SK-N-MC membranes

With `C[C@H](NC(=O)c1nn(-c2ccc(Cl)cc2Cl)c2c1COC/C2=C\c1ccc(Cl)o1)c1ccccc1` [Cpd 70, (7Z)-7-(5-chloro-furan-2-ylmethylene)-1-(2,4-dichloro-phenyl)-1,4,6,7-tetrahydro-pyrano[4,3-c]pyrazole-3-carboxylic acid [(S)-1-phenyl-ethyl]-amide] the inhibition at 0.2 µM (Cannabinoid CB2 Receptor) was 15% and the inhibition at 0.2 µM (Cannabinoid CB1 Receptor; [1]) was 41%.

`C[C@H](NC(=O)c1nn(-c2ccc(Cl)cc2Cl)c2c1COC/C2=C\c1ccc(Cl)s1)c1ccccc1` [Cpd 51, (7Z)-7-(5-chloro-thiophen-2-ylmethylene)-1-(2,4-dichloro-phenyl)-1,4,6,7-tetrahydro-pyrano[4,3-c]pyrazole-3-carboxylic acid [(S)-1-phenyl-ethyl]-amide] showed an inhibition at 0.2 µM (Cannabinoid CB2 Receptor) of 15% and an inhibition at 0.2 µM (Cannabinoid CB1 Receptor; [1]) of 48%.

In the case of `O=C(NN1CCCC1)c1nn(-c2ccc(Cl)cc2)c2c1COC/C2=C\c1ccc(F)cc1` [Cpd 16, (7Z)-1-(4-chloro-phenyl)-7-(4-fluoro-benzylidene)-1,4,6,7-tetrahydro-pyrano[4,3-c]pyrazole-3-carboxylic acid pyrrolidin-1-ylamide], the inhibition at 0.2 µM (Cannabinoid CB2 Receptor) is reported as 11% and the inhibition at 0.2 µM (Cannabinoid CB1 Receptor; [1]) is reported as 44%.

`CC1CCCC(C)N1NC(=O)c1nn(-c2ccc(Cl)cc2Cl)c2c1COC/C2=C\c1cccs1` (stereo not shown) [Cpd 37, (7Z)-1-(2,4-dichloro-phenyl)-7-thiophen-2-ylmethylene-1,4,6,7-tetrahydro-pyrano[4,3-c]pyrazole-3-carboxylic acid (2,6-dimethyl-piperidin-1-yl)-amide] showed an inhibition at 0.2 µM (Cannabinoid CB2 Receptor) of 20% and an inhibition at 0.2 µM (Cannabinoid CB1 Receptor; [1]) of 61%.

`C[C@H](NC(=O)c1nn(-c2ccc(Cl)cc2Cl)c2c1COC/C2=C\c1ccsc1)c1ccccc1` [Cpd 42, (7Z)-1-(2,4-dichloro-phenyl)-7-thiophen-3-ylmethylene-1,4,6,7-tetrahydro-pyrano[4,3-c]pyrazole-3-carboxylic acid [(S)-1-phenyl-ethyl]-amide] showed an inhibition at 0.2 µM (Cannabinoid CB2 Receptor) of 16% and an inhibition at 0.2 µM (Cannabinoid CB1 Receptor) of 57%.

Compound `COC[C@H]1CCCN1NC(=O)c1nn(-c2ccc(Cl)cc2Cl)c2c1COC/C2=C\c1ccc(F)cc1` [Cpd 75, (7Z)-1-(2,4-dichloro-phenyl)-7-(4-fluoro-benzylidene)-1,4,6,7-tetrahydro-pyrano[4,3-c]pyrazole-3-carboxylic acid [(2R)-2-methoxymethyl-pyrroldin-1-yl]-amide] has an inhibition at 0.2 µM (Cannabinoid CB2 Receptor) of 15% and an inhibition at 0.2 µM (Cannabinoid CB1 Receptor; [1]) of 68%.

Compound `O=C(NN1CC2CCCC2C1)c1nn(-c2ccc(Cl)cc2Cl)c2c1COC/C2=C\c1ccc(Cl)o1` (stereo not shown) [Cpd 71, (7Z)-7-(5-chloro-furan-2-ylmethylene)-1-(2,4-dichloro-phenyl)-1,4,6,7-tetrahydro-pyrano[4,3-c]pyrazole-3-carboxylic acid (hexahydro-cyclopenta[c]pyrrol-2-yl)-amide] has an inhibition at 0.2 µM (Cannabinoid CB2 Receptor) of 17%, an IC50 (Cannabinoid CB1 Receptor) of 0.04 µM and an inhibition at 0.2 µM (Cannabinoid CB1 Receptor; [1]) of 71%.

`C[C@@H](NC(=O)c1nn(-c2ccc(Cl)cc2Cl)c2c1COCC2Cc1ccc(F)cc1)c1ccccc1` (stereo partly drawn) [Cpd 24, 1-(2,4-dichloro-phenyl)-7-(4-fluoro-benzyl)-1,4,6,7-tetrahydro-pyrano[4,3-c]pyrazole-3-carboxylic acid [(R)-1-phenyl-ethyl]-amide] was tested, and the inhibition at 0.2 µM (Cannabinoid CB2 Receptor) was 13% and the inhibition at 0.2 µM (Cannabinoid CB1 Receptor; [1]) was 66%.

`COC[C@H]1CCCN1NC(=O)c1nn(-c2ccc(Cl)cc2Cl)c2c1COC/C2=C\c1ccc(Cl)s1` [Cpd 74, (7Z)-7-(5-chloro-thiophen-2-ylmethylene)-1-(2,4-dichloro-phenyl)-1,4,6,7-tetrahydro-pyrano[4,3-c]pyrazole-3-carboxylic acid [(2R)-2-methoxymethyl-pyrrolidin-1-yl]-amide] showed an inhibition at 0.2 µM (Cannabinoid CB2 Receptor) of 12% and an inhibition at 0.2 µM (Cannabinoid CB1 Receptor; [1]) of 65%.

In the case of `CC1CCCC(C)N1NC(=O)c1nn(-c2ccc(Cl)cc2Cl)c2c1COC/C2=C\c1ccc(Cl)o1` (stereo not shown) [Cpd 68, (7Z)-7-(5-chloro-furan-2-ylmethylene)-1-(2,4-dichloro-phenyl)-1,4,6,7-tetrahydro-pyrano[4,3-c]pyrazole-3-carboxylic acid (2,6-dimethyl-piperidin-1-yl)-amide], the inhibition at 0.2 µM (Cannabinoid CB2 Receptor) is reported as 22% and the inhibition at 0.2 µM (Cannabinoid CB1 Receptor; [1]) is reported as 38%.

`O=C(NN1CCCC1)c1nn(-c2ccc(Cl)cc2Cl)c2c1COC/C2=C\c1ccc(Cl)o1` [Cpd 72, (7Z)-7-(5-chloro-furan-2-ylmethylene)-1-(2,4-dichloro-phenyl)-1,4,6,7-tetrahydro-pyrano[4,3-c]pyrazole-3-carboxylic acid pyrrolidin-1-ylamide] was tested, and the inhibition at 0.2 µM (Cannabinoid CB2 Receptor) was 8% and the inhibition at 0.2 µM (Cannabinoid CB1 Receptor; [1]) was 48%.

Compound `CN1CCN(NC(=O)c2nn(-c3ccc(Cl)cc3Cl)c3c2COC/C3=C\c2ccc(F)cc2)CC1` [Cpd 30, (7Z)-1-(2,4-dichloro-phenyl)-7-(4-fluoro-benzylidene)-1,4,6,7-tetrahydro-pyrano[4,3-c]pyrazole-3-carboxylic acid (4-methyl-piperazin-1-yl)-amide] has an inhibition at 0.2 µM (Cannabinoid CB2 Receptor) of 0% and an inhibition at 0.2 µM (Cannabinoid CB1 Receptor; [1]) of 3%.

With `C[C@@H](NC(=O)c1nn(-c2ccc(Cl)cc2Cl)c2c1COC/C2=C\c1ccsc1)c1ccccc1` [Cpd 40, (7Z)-1-(2,4-dichloro-phenyl)-7-thiophen-3-ylmethylene-1,4,6,7-tetrahydro-pyrano[4,3-c]pyrazole-3-carboxylic acid [(R)-1-phenyl-ethyl]-amide] the inhibition at 0.2 µM (Cannabinoid CB2 Receptor) was 21%, the IC50 (Cannabinoid CB1 Receptor) was 0.01 µM and the inhibition at 0.2 µM (Cannabinoid CB1 Receptor) was 84%.

`O=C(NN1CC2CCCC2C1)c1nn(-c2ccc(Cl)cc2Cl)c2c1COC/C2=C\c1ccc(Cl)s1` (stereo not shown) [Cpd 56, (7Z)-7-(5-chloro-thiophen-2-ylmethylene)-1-(2,4-dichloro-phenyl)-1,4,6,7-tetrahydro-pyrano[4,3-c]pyrazole-3-carboxylic acid (hexahydro-cyclopenta[c]pyrrol-2-yl)-amide] gave an inhibition at 0.2 µM (Cannabinoid CB2 Receptor) of 0%, an IC50 (Cannabinoid CB1 Receptor) of 0.04 µM and an inhibition at 0.2 µM (Cannabinoid CB1 Receptor; [1]) of 74%.

Work on `C[C@@H](NC(=O)c1nn(-c2ccc(Cl)cc2Cl)c2c1COC/C2=C\c1ccc(F)cc1)c1ccccc1` [Cpd 2, (7 Z)-1-(2,4-dichloro-phenyl)-7-(4-fluoro-benzylidene)-1,4,6,7-tetrahydro-pyrano[4,3-c]pyrazole-3-carboxylic acid [(1R)-1-phenyl-ethyl]-amide] yielded an inhibition at 0.2 µM (Cannabinoid CB2 Receptor) of 23%, an IC50 (Cannabinoid CB1 Receptor) of 0.013 µM and an inhibition at 0.2 µM (Cannabinoid CB1 Receptor; [1]) of 87%.

With `O=C(NN1CC2CCCC2C1)c1nn(-c2ccc(Cl)cc2Cl)c2c1COC/C2=C\c1cccs1` (stereo not shown) [Cpd 38, (7Z)-1-(2,4-dichloro-phenyl)-7-thiophen-2-ylmethylene-1,4,6,7-tetrahydro-pyrano[4,3-c]pyrazole-3-carboxylic acid (hexahydro-cyclopenta[c]pyrrol-2-yl)-amide] the inhibition at 0.2 µM (Cannabinoid CB2 Receptor) was 16%, the IC50 (Cannabinoid CB1 Receptor) was 0.03 µM and the inhibition at 0.2 µM (Cannabinoid CB1 Receptor; [1]) was 79%.

Reference: patent US20100069341A1, “TETRAHYDRO-PYRANOPYRAZOLE CANNABINOID MODULATORS” (priority 2005, published 2010)
